{"source": "patent US9517934B2", "about": "“Process for the generation of chlorine dioxide” (The United States of America as Represented by the …, priority 2013, dated 2016)", "key": {"[1]": {"conditions": "diprotic, cited from earlier work"}, "[2]": {"tested_on": "Bacillus amyloliquefaciens spores", "assay_type": "cell-based"}, "[3]": {"tested_on": "Bacillus anthracis Sterne spores", "assay_type": "cell-based", "conditions": "cotton/nylon fabric, 200, 80, or 40 ppm chlorine dioxide, 10 minutes"}}}
{"smiles": "N=C(N)S(=O)O", "note": "[FSA, Formamidinesulfinic acid]", "values": [{"measurement": "pKa1", "setting": "[1]; first dissociation", "value": "≤ 2"}, {"measurement": "pKa2", "setting": "[1]; second dissociation", "value": "~9"}]}
{"smiles": "[O][Cl+][O-]", "note": "[chlorine dioxide]", "values": [{"measurement": "presence of B. amyloliquefaciens spores after treatment", "setting": "[2]", "value": "significantly reduced but did not completely eliminate"}, {"measurement": "log reduction of B. anthracis Sterne spores", "setting": "[3]", "value": 7.50, "unit": "log reduction"}]}
